pIC50: −log10 of the molar value. ≈ marks a conversion by molar mass, not a printed value. Read-outs that look alike come from different tables or passages of the source.
Legend:
KRAS WT-cRAF = KRAS WT-cRAF (Homo sapiens, UniProt P01116+P62937); assay: Assay for binding of KRAS to cRAF (HTRF, with Cyclophilin A), KRAS WT; details: for pIC50: read-out: KRAS WT-cRAF binding assay, GPPNP-KRAS WT, IC50 values; for IC50: KRAS WT-cRAF binding assay(nM), GPPNP-KRAS WT, IC50 values
Method: (§3) The plate was centrifuged at 1000 rpm for 1 min and then incubated in the thermostatic incubator at 20 °C for 30 min. […] The plate was centrifuged at 1000 rpm for 1 min and then incubated in the thermostatic incubator at 20 °C for 60 min. […] The working solution was added to the aforementioned assay plate at 5 µL/well. The plate was centrifuged at 1000 rpm for 1 min and then incubated in the thermostatic incubator at 20 °C for 60 min.

[1] = Human liver microsomal stability experiment; format: in vitro ADME; details: human liver microsomes; for half-life: NADPH, 37 °C; for CLint scaled: 45 mg/g, 20.7 g/kg scaling
Method: This experiment was intended to investigate the metabolic stability of the test compounds in human liver microsomes. The materials used in the experiment included 10 mM solutions of the test compounds and the control sample, human liver microsomes, and reduced nicotinamide adenine dinucleotide phosphate (NADPH) powder. In the experiment, a 100 mM potassium phosphate buffer was used as the buffer system.
The liver microsome working solution was prepared by diluting the liver microsome stock solution to 0.75 mg/mL using the 100 mM potassium phosphate buffer. Then, 5 µL of the 10 mM stock solution of the test compound was taken, and 195 µL of methanol was added. The mixture was well mixed to prepare a working solution A with a concentration of 0.25 mM. Subsequently, the working solution A was diluted to 1.5 µM using the liver microsome working solution to prepare a compound-liver microsome mixed solution. Additionally, NADPH powder was dissolved in 100 mM potassium phosphate buffer to prepare a 6 mM NADPH solution. The compound-liver microsome mixed solution was dispensed into a 96-well plate at 30 µL/well, with labeled time points of 0 min, 30 min, and 60 min. For 0-min samples, 180 µL of acetonitrile containing 100 ng/mL tolbutamide and 15 µL of the NADPH solution were added directly. The 96-well plate and the NADPH solution were then preheated under a 37 °C water bath for 5 min. After the preheating, 15 µL of the NADPH solution was added to each of the 30-min and 60-min sample wells. The plate was gently shaken for mixing and then incubated under the 37 °C water bath for the corresponding time. After the incubation was completed, 180 µL of acetonitrile containing 100 ng/mL tolbutamide was added to each sample well. The plate was sealed with a sealing film, shaken for 10 min (800 rpm/min), and then centrifuged for 15 min (4000 rpm). After the centrifugation, 50 µL of the supernatant was taken and added to a 96-well plate containing 150 µL of deionized water, and then the plate was sealed and shaken for 10 min (800 rpm) for uniform mixing. Subsequently, sample analysis was performed using liquid chromatography-tandem mass spectrometry (LC-MS/MS). […] For humans, the microsome protein-to-liver weight ratio was 45 mg/g, and the liver-to-body weight ratio was 20.7 g/kg.

KRAS G12V-cRAF = KRAS G12V-cRAF (Homo sapiens, UniProt P01116+P62937, G12V); assay: Assay for binding of KRAS to cRAF (HTRF, with Cyclophilin A), KRAS G12V; details: for pIC50: read-out: KRAS G12V-cRAF binding assay, GPPNP-KRAS G12V, IC50 values; for IC50: KRAS G12V-cRAF binding assay(nM), GPPNP-KRAS G12V, IC50 values
Chain of KRAS G12V-cRAF (P01116 1-188 isoform P01116-2 G12V): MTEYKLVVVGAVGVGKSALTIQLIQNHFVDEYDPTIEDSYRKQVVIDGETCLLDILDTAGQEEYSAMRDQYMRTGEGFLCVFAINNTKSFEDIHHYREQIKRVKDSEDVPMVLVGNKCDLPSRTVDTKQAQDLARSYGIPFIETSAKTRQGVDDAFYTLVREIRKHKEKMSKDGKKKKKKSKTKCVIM
Chain of KRAS G12V-cRAF (P62937 whole entry): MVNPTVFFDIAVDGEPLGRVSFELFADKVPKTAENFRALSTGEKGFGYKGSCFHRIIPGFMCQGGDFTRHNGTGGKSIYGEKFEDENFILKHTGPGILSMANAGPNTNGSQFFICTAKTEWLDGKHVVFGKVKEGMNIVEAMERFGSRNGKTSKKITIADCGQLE
Method: as §3

[2] = Solubility experiment (HPLC, external standard); format: physicochemical; details: for solubility at 24 h: pH 7.4 medium, pH 7.4, pH 7.4 medium, 37 °C
Procedure, shortened: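 Solid compound (about 1 mg per 1 mL medium) was shaken at 37 °C for 24 h in pH 1.2, 4.5 or 7.4 media, then centrifuged and the supernatant diluted with acetonitrile/water 50/50. Concentration in μg/mL was found by HPLC against an external standard prepared from a DMSO stock.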

H441 p-ERK = assay: Cell p-ERK assay (HTRF), NCI-H441 cells; format: cell-based, human; details: Homo sapiens; NCI-H441 cells (KRAS G12V), 3 h incubation
Procedure, shortened: (§1)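 Phospho-ERK (T202/Y204) was measured by HTRF in lysates after 3 h compound treatment at 37 °C. Cells had been plated the previous day at 20000 per well for NCI-H441 and 10000 per well for AsPC-1. Four-parameter dose-response fitting of % inhibition gave IC50 values.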

AsPC-1 p-ERK = assay: Cell p-ERK assay (HTRF), AsPC-1 cells; format: cell-based, human; details: Homo sapiens; for pIC50: ASPC1, AsPC-1 cells (KRAS G12D), 3 h incubation, read-out: AsPC-1 p-ERK IC50
Procedure, shortened: as §1

NCI-H441 cells = assay: 3D cell proliferation assay (CellTiter Glo-3D), NCI-H441; format: cell-based, human; details: Homo sapiens, 120 h, NCI-H441 cells (KRAS G12V), 2% FBS, 5 days, read-out: H441 AP IC50
Procedure, shortened: (§2)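 IC50 values come from four-parameter fits of inhibition rate against log compound concentration, using CellTiter-Glo luminescence read after 5 days' exposure. AsPC-1 and NCI-H441 were plated at 800 cells per well in low-serum (2% FBS) medium. Compound was dosed the day after seeding, with incubation at 37 °C, 5% CO2.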

AsPC-1 cells = assay: 3D cell proliferation assay (CellTiter Glo-3D), AsPC-1; format: cell-based, human; details: Homo sapiens, ASPC1, 120 h; for pIC50: AsPC-1 cells (KRAS G12D), 3D, 2% FBS, 5 days, read-out: AsPC-1 AP IC50
Procedure, shortened: as §2

Chain of KRAS WT-cRAF (P01116 1-188 isoform P01116-2): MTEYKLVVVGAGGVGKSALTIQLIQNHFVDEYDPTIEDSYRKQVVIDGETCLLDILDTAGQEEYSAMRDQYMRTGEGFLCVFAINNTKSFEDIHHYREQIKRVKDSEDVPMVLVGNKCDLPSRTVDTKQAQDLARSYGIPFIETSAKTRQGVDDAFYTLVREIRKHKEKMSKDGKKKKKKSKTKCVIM
Chain of KRAS WT-cRAF (P62937 whole entry): as the sequence (P62937 whole entry) above

Row | SMILES | pIC50 (KRAS WT-cRAF) | half-life [1] [min] | CLint scaled [1] [mL/min/kg] | pIC50 (KRAS G12V-cRAF) | Solubility at pH 7.4 (µg/mL) ([2]; ph 7.4 medium, pH 7.4, 1440 min) | pIC50 (H441 p-ERK) | IC50 (AsPC-1 p-ERK; ASPC1, 3 h, read-out: AsPC-1 p-ERK IC50(nM)) [nM] | pIC50 (NCI-H441 cells) | IC50 (AsPC-1 cells; read-out: AsPC-1 AP IC50(nM)) [nM] | solubility at 24 h [2] [µg/mL] | IC50 (KRAS WT-cRAF) [nM] | pIC50 (AsPC-1 p-ERK) | IC50 (KRAS G12V-cRAF) [nM] | pIC50 (AsPC-1 cells)
1 | CCn1c(-c2cc(C#CCN3CCC(C#N)CC3)cnc2[C@H](C)OC)c2c3cc(ccc31)-c1csc(n1)C[C@H](NC(=O)[C@H]1[C@H](C)[C@@H]1C)C(=O)N1CCC[C@H](N1)C(=O)OCC(C)(C)C2 (atropisomer, axis not shown; (Ra)) [Compound Z282, (1r,2R,3S)-N-((6^3S,4S,Z)-1^2-(5-(3-(4-cyanopiperidin-1-yl)prop-1-yn-1-yl)-(Ra)-2-((S)-1-methoxyethyl)pyridin-3-yl)-1^1-ethyl-10,10-dimethyl-5,7-dioxo-6^1,6^2,6^3,6^4,6^5,6^6-hexahydro-1^1H-8-oxa-2(4,2)-thiazola-1(5,3)-indola-6(1,3)-pyridazinacycloundecaphan-4-yl)-2,3-dimethylcyclopropane-1-carboxamide] | 7.83 | 18.1 | 88.5 | 8.26 |  |  |  |  |  |  |  |  |  | 
2 | CCn1c(-c2cc(C#CCN3CCS(=O)(=O)CC3)cnc2[C@H](C)NC)c2c3cc(ccc31)-c1csc(n1)C[C@H](NC(=O)[C@H]1[C@H](C)[C@@H]1C)C(=O)N1CCC[C@H](N1)C(=O)OCC(C)(C)C2 (atropisomer, axis not shown; (Ra)) [Compound Z66, (1r,2R,3S)-N-((6^3S,4S,Z)-(Ra)-1^2-(5-(3-(1,1-dioxidothiomorpholino)prop-1-yn-1-yl)-2-((S)-1-(methylamino)ethyl)pyridin-3-yl)-1^1-ethyl-10,10-dimethyl-5,7-dioxo-6^1,6^2,6^3,6^4,6^5,6^6-hexahydro-1^1H-8-oxa-2(4,2)-thiazola-1(5,3)-indola-6(1,3)-pyridazinacycloundecaphane-4-yl)-2,3-dimethylcyclopropane-1-carboxamide] | 7.71 |  |  | 8.07 | 66.54 | 9.49 | 0.3 | 9.96 | 0.12 |  |  |  |  | 
3 | CCn1c(-c2cc(C#CCN3CCC(C#N)(CN)CC3)cnc2[C@H](C)OC)c2c3cc(ccc31)-c1coc(n1)C[C@H](NC(=O)[C@H]1[C@H](C)[C@@H]1C)C(=O)N1CCC[C@H](N1)C(=O)OCC(C)(C)C2 (atropisomer, axis not shown; (Ra)) [Compound Z182] | 7.46 | 16.4 | 97.9 | 7.89 |  |  |  |  |  |  |  |  |  | 
4 | CCn1c(-c2cc(C#CCN3CCN(C(=O)CO)CC3)cnc2C(C)OC)c2c3cc(ccc31)-c1csc(n1)CC(NC(=O)C1C(C)C1C)C(=O)N1CCCC(N1)C(=O)OCC(C)(C)C2 (atropisomer, axis not shown; (Ra)) [Compound Z6, (1r,2R,3S)-N-((6^3S,4S,Z)-1^1-ethyl-(Ra)-1^2-(5-(3-(4-(2-hydroxyacetyl)piperazin-1-yl)prop-1-yn-1-yl)-2-((S)-1-methoxyethyl)pyridin-3-yl)-10,10-dimethyl-5,7-dioxo-6^1,6^2,6^3,6^4,6^5,6^6-hexahydro-1^1H-8-oxa-2(4,2)-thiazola-1(5,3)-indola-6(1,3)-pyridazinacycloundecaphane-4-yl)-2,3-dimethylcyclopropane-1-carboxamide] |  |  |  |  |  | 9.68 |  | 9.55 |  | 7.8 (≈ 8.6 µM) | 19.2 | 9.82 | 10.7 | 9.51
5 | CCn1c(-c2cc(C#CC(CO)N3CCS(=O)(=O)CC3)cnc2C(C)OC)c2c3cc(ccc31)-c1csc(n1)CC(NC(=O)C1C3COCC31)C(=O)N1CCCC(N1)C(=O)OCC(C)(C)C2 (atropisomer, axis not shown; (Ra)) [Compound Z40, (1R,5S,6r)-N-((6^3S,4S,Z)-(Ra)-1^2-(5-(3-(1,1-dioxidothiomorpholino)-4-hydroxybut-1-yn-1-yl)-(Ra)-2-((S)-1-methoxyethyl)-pyridin-3-yl)-1^1-ethyl-10,10-dimethyl-5,7-dioxo-6^1,6^2,6^3,6^4,6^5,6^6-hexahydro-1^1H-8-oxa-2(4,2)-thiazola-1(5,3)-indola-6(1,3)-pyridazinacycloundecaphane-4-yl)-3-oxabicyclo[3.1.0]hexane-6-carboxamide] |  |  |  |  |  | 9.35 |  | 9.40 |  | 5.1 (≈ 5.41 µM) | 14.3 | 9.42 | 7.8 | 9.37
6 | CCn1c(-c2cc(C#CCN3CCN(C(=O)CO)CC3)c[n+]([O-])c2C(C)OC)c2c3cc(ccc31)-c1csc(n1)CC(NC(=O)C1C(C)C1C)C(=O)N1CCCC(N1)C(=O)OCC(C)(C)C2 (atropisomer, axis not shown; (Ra)) [Compound Z48, (Ra)-3-((6^3S,4S,Z)-4-((1r,2R,3S)-2,3-dimethylcyclopropane-1-carboxamido)-1^1-ethyl-10,10-dimethyl-5,7-dioxo-6^1,6^2,6^3,6^4,6^5,6^6-hexahydro-1^1H-8-oxa-2(4,2)-thiazola-1(5,3)-indola-6(1,3)-pyridazinacycloundecaphane-1^2-yl)-5-(3-(4-(2-hydroxyacetyl)piperazin-1-yl)prop-1-yn-1-yl)-2-((S)-1-methoxyethyl)pyridine 1-oxide] |  |  |  |  |  | 8.78 |  | 8.70 |  | 71.2 (≈ 77.1 µM) | 31.3 | 8.33 | 9.05 | 8.30
7 | COCCn1c(-c2cc(C#CCN3CCC(C#N)(CO)CC3)c[n+]([O-])c2C(C)OC)c2c3cc(ccc31)-c1csc(n1)CC(NC(=O)C1C(C)C1C)C(=O)N1CCCC(N1)C(=O)OCC(C)(C)C2 (atropisomer, axis not shown; (Ra)) [Compound Z42-1, 5-(3-(4-cyano-4-(hydroxymethyl)piperidin-1-yl)prop-1-yn-1-yl)-(Ra)-3-((6^3S,4S,Z)-4-((1r,2R,3S)-2,3-dimethylcyclopropane-1-carboxamido)-1^1-(2-methoxyethyl)-10,10-dimethyl-5,7-dioxo-6^1,6^2,6^3,6^4,6^5,6^6-hexahydro-1^1H-8-oxa-2(4,2)-thiazola-1(5,3)-indola-6(1,3)-pyridazinacycloundecaphane-1^2-yl)-2-((S)-1-methoxyethyl)pyridine 1-oxide] |  |  |  |  |  | 8.74 |  | 9.19 |  | 15.6 (≈ 16.4 µM) | 18.9 | 8.88 | 9.9 | 9.48
